US9604940B2 (Chroma Therapeutics Ltd., priority 2012, dated 2017)
Structures can show the parent of a compound that is named as a salt.

What was measured:
CSF1R (FMS) = biological target: T1, CSF1R (FMS) (Homo sapiens, UniProt P07333); assay: CSF1R (FMS) kinase activity, Z'-LYTE biochemical assay (Invitrogen); details: ATP at or close to Km, 60 minute reaction at room temperature, read-out: Inhibitor activity versus CSF-1
T1 construct: purchased Invitrogen (Paisley, UK)
Procedure: CSF1R (FMS) Kinase Activity
The ability of compounds to inhibit CSF1R (FMS) kinase activity was measured in an assay performed by Invitrogen (Paisley, UK). The Z′-LYTE™ biochemical assay employs a fluorescence-based, coupled-enzyme format and is based on the differential sensitivity of phosphorylated and non-phosphorylated peptides to proteolytic cleavage. The peptide substrate is labelled with two fluorophores—one at each end—that make up a FRET pair. In the primary reaction, the kinase transfers the gamma-phosphate of ATP to a single […] residue in a synthetic FRET-peptide. In the secondary reaction, a site-specific protease recognizes and cleaves non-phosphorylated FRET-peptides. Phosphorylation of FRET-peptides suppresses cleavage by the Development Reagent. Cleavage disrupts FRET between the donor (i.e. coumarin) and acceptor (i.e. fluorescein) fluorophores on the FRET-peptide, whereas uncleaved, phosphorylated FRET-peptides maintain FRET. A […] method, which calculates the ratio (the Emission Ratio) of donor emission to acceptor emission after excitation of the donor fluorophore at 400 nm, is used to quantitate reaction progress.
The final 10 μL Kinase Reaction consists of 0.12-12.3 ng CSF1R (FMS), 2 μM Tyr 01 Peptide and ATP in 50 mM HEPES pH 7.5, 0.01% BRIJ-35, 10 mM MgCl2, 1 mM EGTA. The assay is performed at an ATP concentration at, or close to, the Km. After the 60 minute Kinase Reaction incubation at room temperature, 5 μL of a 1:256 dilution of Development Reagent is added. The assay plate is incubated for a further 60 minutes at room temperature and read on a fluorescence plate reader.
Duplicate data points are generated from a ⅓ log dilution series of a stock solution of test compound in DMSO. Nine dilutions steps are made from a top concentration of 10 mM, and a ‘no compound’ blank is included. Data is collected and analysed using XLfit software from IDBS. The dose response curve is curve fitted to model number 205 (sigmoidal dose-response model). From the curve generated, the concentration giving 50% inhibition is determined and reported.

MCP-1 = assay: MCSF-stimulation of human whole blood, MCP-1 levels by sandwich ELISA; type: cell-based; details: inhibitor 2 hours before MCSF 50 ng/ml, 22 hrs, MCP-1 in cell-free supernatants, read-out: Inhibitor activity versus MCP-1
Procedure: Macrophage Colony-Stimulating Factor (MCSF)-Stimulation of Human Whole Blood
Whole blood was taken by venous puncture using heparinised vacutainers (Becton Dickinson) and diluted in an equal volume of RPMI1640 tissue culture media (Sigma). 100 μl was plated in V-bottomed 96 well tissue culture treated plates. 2 hours after the addition of the inhibitor in 100 μl of RPMI1640 media, the blood was stimulated with MCSF (Peprotech: #300-25-10 uG) at a final concentration of 50 ng/ml and incubated at 37° C. in 5% CO2 for 22 hrs. MCP-1 levels were measured from cell-free supernatants by sandwich ELISA developed from MCP-1/CCL2 Duoset (R&D Systems #DY279). Additional reagents required for ELISA were purchased from Sigma, (BSA: A3059, 10×PBS: D1408, Tween20: P5927) R&D Systems, (colour reagent: #DY999 and stop solution: #DY994) and Costar (96-well EIA plates: #2592). Assays were carried out following the manufacturer's instructions with the following modifications: Cell-free supernatants were diluted 30:70 in reagent diluent before assay. All incubations except capture antibody were carried out with shaking at 550 rpm. 3 washes were carried out between steps, and incubation times were blocking 1.5 hr, sample/standard and detection antibody incubations 2 hr, HRP incubation 30 min, colour development 20 min. • IC50 values were allocated to one of five ranges as follows: • Range A: IC50<100 nM • Range B: 100 nM<IC50<300 nM • Range C: 300 nM<1050<1000 nM • Range D: 1000 nM<IC50<5000 nM • Range E: IC50>5000 nM • NT=not tested

T1 sequence (P07333 20-972): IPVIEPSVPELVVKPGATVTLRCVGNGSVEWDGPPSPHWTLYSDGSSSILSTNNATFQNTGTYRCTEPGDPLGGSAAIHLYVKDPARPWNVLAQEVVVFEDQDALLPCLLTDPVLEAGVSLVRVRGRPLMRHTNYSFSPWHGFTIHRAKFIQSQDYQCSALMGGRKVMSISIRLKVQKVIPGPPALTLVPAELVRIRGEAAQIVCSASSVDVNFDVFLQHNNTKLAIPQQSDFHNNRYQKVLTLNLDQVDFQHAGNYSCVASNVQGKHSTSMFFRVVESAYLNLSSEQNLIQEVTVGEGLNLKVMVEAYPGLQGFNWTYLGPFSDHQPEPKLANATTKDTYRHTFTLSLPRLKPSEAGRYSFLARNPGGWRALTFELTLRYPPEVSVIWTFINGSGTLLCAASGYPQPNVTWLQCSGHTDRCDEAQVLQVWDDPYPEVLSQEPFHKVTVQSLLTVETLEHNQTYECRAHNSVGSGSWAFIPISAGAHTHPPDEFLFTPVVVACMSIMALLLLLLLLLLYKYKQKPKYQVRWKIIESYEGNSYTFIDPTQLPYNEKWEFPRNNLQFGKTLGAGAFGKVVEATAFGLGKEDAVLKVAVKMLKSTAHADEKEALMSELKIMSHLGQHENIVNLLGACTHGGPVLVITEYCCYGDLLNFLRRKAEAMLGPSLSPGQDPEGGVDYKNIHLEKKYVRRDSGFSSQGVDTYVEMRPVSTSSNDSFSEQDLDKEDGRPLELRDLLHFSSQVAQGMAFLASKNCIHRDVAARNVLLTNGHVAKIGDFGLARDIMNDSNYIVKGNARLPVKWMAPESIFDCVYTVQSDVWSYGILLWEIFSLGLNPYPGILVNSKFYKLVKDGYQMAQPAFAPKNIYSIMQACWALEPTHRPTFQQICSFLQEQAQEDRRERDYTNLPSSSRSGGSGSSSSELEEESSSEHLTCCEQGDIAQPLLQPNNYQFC

Row | Structure (SMILES) | IC50 (CSF1R (FMS)) | IC50 (MCP-1)
1 | Nc1ncc(-c2cccc(CCNC3CCN[C@@H](C(=O)OC4CCCC4)C3)c2)nc1NCc1c(Cl)cccc1Cl (stereo partly drawn) [Example 50, Cyclopentyl (2R)-4-{[2-(3-{5-amino-6-[(2,6-dichlorobenzyl)amino]pyrazin-2-yl}phenyl)ethyl]amino}piperidine-2-carboxylate] | < 0.1 µM | 0.1 to 0.3 µM
2 | Nc1ncc(-c2cccc(CN3CCN[C@@H](C(=O)OC4CCCC4)C3)c2)nc1NCc1c(Cl)cccc1Cl [Example 37, Cyclopentyl (2R)-4-(3-{5-amino-6-[(2,6-dichlorobenzyl)amino]pyrazin-2-yl}benzyl)piperazine-2-carboxylate] | 0.3 to 1 µM | < 0.1 µM
3 | CCN(Cc1ccc(-c2cnc(N)c(NCc3c(Cl)cccc3Cl)n2)cc1)C1CCN[C@@H](C(=O)OC2CCCC2)C1 (stereo partly drawn) [Example 27, Cyclopentyl (2R)-4-[(4-{5-amino-6-[(2,6-dichlorobenzyl)amino]pyrazin-2-yl}benzyl)(ethyl)amino]piperidine-2-carboxylate] | 0.1 to 0.3 µM | < 0.1 µM
4 | CC(C)C[C@H](NCCn1cc(-c2cnc(N)c(NCc3c(Cl)cccc3Cl)n2)cn1)C(=O)OC1CCCC1 [Example 57, Cyclopentyl N-[2-(4-{5-amino-6-[(2,6-dichlorobenzyl)amino]pyrazin-2-yl}-1H-pyrazol-1-yl)ethyl]-L-leucinate] | 1 to 5 µM | 1 to 5 µM
5 | Cc1cc(-c2cnc(N)c(NCc3c(Cl)cccc3Cl)n2)ccc1CNC1CCN[C@@H](C(=O)OC(C)(C)C)C1 (stereo partly drawn) [Example 26, tert-Butyl (2R)-4-[(4-{5-amino-6-[(2,6-dichlorobenzyl)amino]pyrazin-2-yl}-2-methylbenzyl)amino]piperidine-2-carboxylate] | < 0.1 µM | 0.3 to 1 µM
6 | CC(C)CN(Cc1ccc(-c2cnc(N)c(NCc3c(Cl)cccc3Cl)n2)cc1)C1CCN[C@@H](C(=O)OC2CCCC2)C1 (stereo partly drawn) [Example 29, Cyclopentyl (2R)-4-[(4-{5-amino-6-[(2,6-dichlorobenzyl)amino]pyrazin-2-yl}benzyl)(2-methylpropyl)amino]piperidine-2-carboxylate] | – | 1 to 5 µM
7 | CC(=O)N(Cc1ccc(-c2cnc(N)c(NCc3c(Cl)cccc3Cl)n2)cc1)C1CCN[C@@H](C(=O)OC2CCCC2)C1 (stereo partly drawn) [Example 31, Cyclopentyl (2R)-4-[acetyl(4-{5-amino-6-[(2,6-dichlorobenzyl)amino]pyrazin-2-yl}benzyl)amino]piperidine-2-carboxylate] | 0.1 to 0.3 µM | < 0.1 µM
8 | CC(C)(C)OC(=O)[C@@H]1CC(NCc2cccc(-c3cnc(N)c(NCc4c(Cl)cccc4Cl)n3)c2)CCN1 (stereo partly drawn) [Example 47, tert-Butyl (2S)-4-[(3-{5-amino-6-[(2,6-dichlorobenzyl)amino]pyrazin-2-yl}benzyl)amino]piperidine-2-carboxylate di-formate] | < 0.1 µM | 0.3 to 1 µM
9 | CC(C)(C)OC[C@H](NCc1cccc(-c2cnc(N)c(NCc3c(Cl)cccc3Cl)n2)c1)C(=O)OC(C)(C)C [Example 44, tert-Butyl N-(3-{5-amino-6-[(2,6-dichlorobenzyl)amino]pyrazin-2-yl}benzyl)-O-tert-butyl-L-serinate] | > 5 µM | > 5 µM
10 | CC(C)(NCCc1cccc(-c2cnc(N)c(NCc3c(Cl)cccc3Cl)n2)c1)C(=O)OC1CCCC1 [Example 48, Cyclopentyl N-[2-(3-{5-amino-6-[(2,6-dichlorobenzyl)amino]pyrazin-2-yl}phenyl)ethyl]-2-methylalaninate] | 1 to 5 µM | 0.3 to 1 µM
11 | Nc1ncc(-c2cccc(CCN3CCNC(C(=O)OC4CCCC4)C3)c2)nc1NCc1c(Cl)cccc1Cl (stereo not drawn) [Example 52, Cyclopentyl 4-[2-(3-{5-amino-6-[(2,6-dichlorobenzyl)amino]pyrazin-2-yl}phenyl)ethyl]piperazine-2-carboxylate] | – | 0.1 to 0.3 µM
12 | Nc1ncc(-c2ccc(CNC3CCN[C@@H](C(=O)OC4CCCC4)C3)cc2)nc1NCc1c(F)cccc1F (stereo partly drawn) [Example 14, Cyclopentyl (2R)-4-[(4-{5-amino-6-[(2,6-difluorobenzyl)amino]pyrazin-2-yl}benzyl)amino]piperidine-2-carboxylate di-formate] | 0.1 to 0.3 µM | 0.3 to 1 µM
13 | Nc1ncc(-c2ccc(CNC3CCN[C@@H](C(=O)OC4CCCC4)C3)cc2)nc1NCc1c(F)cccc1Cl (stereo partly drawn) [Example 17, Cyclopentyl (2R)-4-[(4-{5-amino-6-[(2-chloro-6-fluorobenzyl)amino]pyrazin-2-yl}benzyl)amino]piperidine-2-carboxylate] | < 0.1 µM | –
14 | CC(C)C[C@H](NCc1ccc(-c2cnc(N)c(NCc3c(F)cccc3F)n2)cc1)C(=O)OC1CCCC1 [Example 15, Cyclopentyl N-(4-{5-amino-6-[(2,6-difluorobenzyl)amino]pyrazin-2-yl}benzyl)-L-leucinate] | > 5 µM | –
15 | CC(C)C[C@H](NCc1ccc(-c2cnc(N)c(NCc3c(F)cccc3F)n2)cc1)C(=O)OC(C)(C)C [Example 16, tert-Butyl N-(4-{5-amino-6-[(2,6-difluorobenzyl)amino]pyrazin-2-yl}benzyl)-L-leucinate] | 1 to 5 µM | –
16 | CC(C)(C)OC(=O)C(C)(C)NCc1cccc(-c2cnc(N)c(NCc3c(Cl)cccc3Cl)n2)c1 [Example 41, tert-Butyl N-(3-{5-amino-6-[(2,6-dichlorobenzyl)amino]pyrazin-2-yl}benzyl)-2-methylalaninate formate salt] | 1 to 5 µM | –
17 | CC(C)C[C@H](NCc1ccc(-c2cnc(N)c(NCc3c(Cl)cccc3Cl)n2)cc1)C(=O)OC1CCCC1 [Example 12, Cyclopentyl N-(4-{5-amino-6-[(2,6-dichlorobenzyl)amino]pyrazin-2-yl}benzyl)-L-leucinate] | > 5 µM | –
18 | CC(C)(C)OC(=O)[C@H]1CC(NCc2ccc(-c3cnc(N)c(NCc4c(F)cccc4F)n3)cc2)CCN1 (stereo partly drawn) [Example 24, tert-Butyl (2R)-4-[(4-{5-amino-6-[(2,6-difluorobenzyl)amino]pyrazin-2-yl}benzyl)amino]piperidine-2-carboxylate] | 0.3 to 1 µM | –
19 | Nc1ncc(-c2ccc(CN3CCNC(C(=O)OC4CCCC4)C3)nc2)nc1NCc1c(Cl)cccc1Cl (stereo not drawn) [Example 59, Cyclopentyl 4-[(5-{5-amino-6-[(2,6-dichlorobenzyl)amino]pyrazin-2-yl}pyridin-2-yl)methyl]piperazine-2-carboxylate] | 0.1 to 0.3 µM | –
20 | CC(C)(C)OC(=O)[C@H]1CC(NC(=O)c2ccc(-c3cnc(N)c(NCc4c(Cl)cccc4Cl)n3)cc2)CCN1 (stereo partly drawn) [Example 4, tert-Butyl (2R)-4-[(4-{5-amino-6-[(2,6-dichlorobenzyl)amino]pyrazin-2-yl}benzoyl)amino]piperidine-2-carboxylate] | 0.1 to 0.3 µM | –
21 | Nc1ncc(-c2cnn(CC(=O)NC3CCN[C@@H](C(=O)OC4CCCC4)C3)c2)nc1NCc1c(Cl)cccc1Cl (stereo partly drawn) [Example 53, Cyclopentyl (2R)-4-{[(4-{5-amino-6-[(2,6-dichlorobenzyl)amino]pyrazin-2-yl}-1H-pyrazol-1-yl)acetyl]amino}piperidine-2-carboxylate] | 0.1 to 0.3 µM | –
22 | CC(C)(C)OC(=O)[C@H]1CC(NC(=O)Cn2cc(-c3cnc(N)c(NCc4c(Cl)cccc4Cl)n3)cn2)CCN1 (stereo partly drawn) [Example 54, tert-Butyl (2R)-4-{[(4-{5-amino-6-[(2,6-dichlorobenzyl)amino]pyrazin-2-yl}-1H-pyrazol-1-yl)acetyl]amino}piperidine-2-carboxylate] | 0.1 to 0.3 µM | –
23 | CC(C)C[C@H](NCc1ccc(-c2cnc(N)c(NCc3c(Cl)cccc3Cl)n2)cc1)C(=O)OC(C)(C)C [Example 13, tert-Butyl N-(4-{5-amino-6-[(2,6-dichlorobenzyl)amino]pyrazin-2-yl}benzyl)-L-leucinate] | 1 to 5 µM | –
